In publication PMC10382406, “Head-to-head comparison of different classes of FAP radioligands designed to increase tumor residence time: monomer, dimer, albumin binders, and small molecules vs peptides” (European Journal of Nuclear Medicine and Molecular Imaging, 2023):

Target: T1, hFAP (Homo sapiens, UniProt Q12884)
T1 sequence (Q12884 1-760): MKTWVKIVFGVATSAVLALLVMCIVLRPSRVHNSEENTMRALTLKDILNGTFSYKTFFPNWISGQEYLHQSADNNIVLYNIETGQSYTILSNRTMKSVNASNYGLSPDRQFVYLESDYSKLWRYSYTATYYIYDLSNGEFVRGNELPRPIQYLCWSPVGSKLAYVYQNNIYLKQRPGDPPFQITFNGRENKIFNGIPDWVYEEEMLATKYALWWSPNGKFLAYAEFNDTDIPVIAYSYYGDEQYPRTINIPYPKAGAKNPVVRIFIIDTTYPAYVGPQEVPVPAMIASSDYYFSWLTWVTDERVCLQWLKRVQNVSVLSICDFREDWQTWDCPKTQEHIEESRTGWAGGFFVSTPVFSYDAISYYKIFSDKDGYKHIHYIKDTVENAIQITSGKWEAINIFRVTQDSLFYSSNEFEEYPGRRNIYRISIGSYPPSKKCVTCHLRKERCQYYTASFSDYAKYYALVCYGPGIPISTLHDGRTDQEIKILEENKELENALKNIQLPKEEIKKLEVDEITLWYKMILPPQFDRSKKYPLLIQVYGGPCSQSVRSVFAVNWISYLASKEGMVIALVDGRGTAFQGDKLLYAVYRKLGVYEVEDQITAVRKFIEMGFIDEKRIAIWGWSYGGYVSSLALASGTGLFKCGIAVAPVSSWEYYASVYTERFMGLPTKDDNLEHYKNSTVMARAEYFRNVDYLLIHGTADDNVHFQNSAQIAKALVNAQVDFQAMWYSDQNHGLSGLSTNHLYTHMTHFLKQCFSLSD
Experiment: In vitro inhibition assay on hFAP (substrate Z-Gly-Pro-AMC)
Type: biochemical
Details: isolated hFAP 200 pM, Z-Gly-Pro-AMC 20 μM, room temperature
Method: The IC50 of all the ligands against isolated hFAP protein was assessed by an inhibition assay following published protocols (Supplementary Information and Supplementary Fig. 3).
In vitro inhibition assay on hFAP
The enzymatic activity of hFAP on the substrate Z-Gly-Pro-AMC was measured at room temperature on a microtiter plate reader, monitoring the fluorescence at an excitation wavelength of 360 nm and an emission wavelength of 465 nm. The assay was performed by mixing the substrate (20 μM), hFAP (200 pM, constant), and the ligands in assay buffer (50 mM Tris, 1 M NaCl, 1 mg/mL BSA, pH=7.5), with serial dilution of the inhibitors ranging from 250 nM to 2 fM, 1:2 in a total volume of 20 μL.
Experiments were performed in triplicate, and the mean fluorescence values were fitted using GraphPad Prism 9 (equation used: Y = Bottom + (Top − Bottom)/(1 +
((X^HillSlope)/(IC50^HillSlope)))). The IC50 value is defined as the concentration of ligand (inhibitor) required to reduce the enzyme activity by 50% after the addition of the substrate.
The results are presented in the Supplemental Figure 3.
(1 picture or pasted object on this page, not shown here)

| SMILES | IC50 [pM] |
| --- | --- |
| CN(CCCN1CCN(C(=O)CN2CCN(CC(=O)O)CCN(CC(=O)O)CCN(CC(=O)O)CC2)CC1)c1ccc2nccc(C(=O)NCC(=O)N3CC(F)(F)C[C@H]3C#N)c2c1 [FAPI-46, reference compound] | 247 ± 17 |
| Cc1cc(-c2ccc(NC(=O)CC(NC(=O)CN3CCN(CC(=O)O)CCN(CC(=O)O)CCN(CC(=O)O)CC3)C(=O)N3CCN(CCCN(C)c4ccc5nccc(C(=O)NCC(=O)N6CC(F)(F)CC6C#N)c5c4)CC3)c(C)c2)ccc1N=Nc1ccc2c(S(=O)(=O)O)cc(S(=O)(=O)O)c(N)c2c1O (stereo not shown) [FAPI-46-EB] | 634 ± 102 |
| CC(C)Cc1ccc(C(C)C(=O)NCC(NC(=O)CN2CCN(CC(=O)O)CCN(CC(=O)O)CCN(CC(=O)O)CC2)C(=O)N2CCN(CCCN(C)c3ccc4nccc(C(=O)NCC(=O)N5CC(F)(F)C[C@H]5C#N)c4c3)CC2)cc1 (stereo partly shown) [FAPI-46-Ibu] | 39.4 ± 16.1 |
| CN(CCCN1CCN(C(=O)CC(NC(=O)CN2CCN(CC(=O)O)CCN(CC(=O)O)CCN(CC(=O)O)CC2)C(=O)N2CCN(CCCN(C)c3ccc4nccc(C(=O)NCC(=O)N5CC(F)(F)C[C@H]5C#N)c4c3)CC2)CC1)c1ccc2nccc(C(=O)NCC(=O)N3CC(F)(F)C[C@H]3C#N)c2c1 (stereo partly shown) [FAPI-46-F1D] | 158 ± 14.5 |
